Biological target: T1, α4 β1 integrin (VLA-4) (Homo sapiens, UniProt P05556+P13612)
T1 construct: Jurkat cells (ATCC #TIB-153) which express high levels of α4 β1 integrin (VLA-4); host or cells: Jurkat cells
Assay: Monovalent FACS Assay for α4 β1 Integrin/VCAM-1 Binding (inhibition of soluble VCAM-1 binding to Jurkat cells)
Settings: not given
Experimental: The foregoing compounds were tested for VLA-4 binding activity using the following monvalent FACS assay. The IC50 for a compound reflects 50% receptor occupancy.
Monovalent FACS Assay for α4 β1 Integrin/VCAM-1 Binding
The VLA-4 binding activity of exemplary compounds was measured by measuring the inhibition of the interaction of soluble VCAM-1 with Jurkat cells (ATCC #TIB-153) which express high levels of α4 β1 integrin (VLA-4) using a modification of the fluorescence activated cell sorter (FACS) assay described by Yednock, et al., J. Biol. Chem., 1995, 270:28740. VCAM-1 interacts with the cell surface in an α4 β1 integrin-dependent fashion.
Jurkat cells were grown in RPMI 1640 supplemented with 10% fetal bovine serum, penicillin, streptomycin and glutamine as described by Yednock, supra.
Recombinant soluble VCAM-1 (rsVCAM-1) was produced in a baculovirus expression system as a chimeric fusion protein containing the seven immunoglobulin domains of VCAM-1 on the N-terminus and the human IgG1 heavy chain constant region on the C-terminus as described by Yednock, supra. Supernatant containing approximately 10 ug/ml rsVCAM-1 was collected after 72 hours and used in the assay without purification.
Jurkat cells (approximately 10^7 cells/ml) were treated with 1.5 mM MnCl2 and 5 μg/ml 15/7 for 30 minutes on ice to activate β1 integrin. Mn^+2 activates the receptor to enhance ligand binding, and 15/7 is a monoclonal antibody that recognizes an activated/ligand occupied conformation of α4 β1 integrin and locks the molecule into this conformation thereby stabilizing the VCAM-1/α4 β1 integrin interaction. Yednock, et al., supra. Antibodies similar to 15/7 have been prepared and may be used in this assay. For example, see, Luque, et al., 1996, J. Bio. Chem., 271: 11067.
Aliquots of 25 μl cells were incubated for 30 minutes at room temperature with compounds using a standard 5-point serial dilution. 15 μl of rsVCAM-Fc-containing baculovirus supernatant was added to the cells and incubated for 30 minutes on ice as described in Yednock, et al., supra.
Cells were washed twice and resuspended in 100 μl of a 1:100 dilution of FITC-conjugated goat anti-human IgG to detect the human Ig-VCAM-1 construct diluted in assay media containing 2.5% mouse serum to block potential cross-reactivity with cell surface bound 15/7. Cells were incubated on ice for 30 minutes in the dark. Cells were washed twice and analyzed with a standard FACS analysis as described in Yednock, et al., supra. on a FACScan flow cytometer (Becton Dickinson, Mountain View, Calif.).

T1 sequence (P13612 34-1032): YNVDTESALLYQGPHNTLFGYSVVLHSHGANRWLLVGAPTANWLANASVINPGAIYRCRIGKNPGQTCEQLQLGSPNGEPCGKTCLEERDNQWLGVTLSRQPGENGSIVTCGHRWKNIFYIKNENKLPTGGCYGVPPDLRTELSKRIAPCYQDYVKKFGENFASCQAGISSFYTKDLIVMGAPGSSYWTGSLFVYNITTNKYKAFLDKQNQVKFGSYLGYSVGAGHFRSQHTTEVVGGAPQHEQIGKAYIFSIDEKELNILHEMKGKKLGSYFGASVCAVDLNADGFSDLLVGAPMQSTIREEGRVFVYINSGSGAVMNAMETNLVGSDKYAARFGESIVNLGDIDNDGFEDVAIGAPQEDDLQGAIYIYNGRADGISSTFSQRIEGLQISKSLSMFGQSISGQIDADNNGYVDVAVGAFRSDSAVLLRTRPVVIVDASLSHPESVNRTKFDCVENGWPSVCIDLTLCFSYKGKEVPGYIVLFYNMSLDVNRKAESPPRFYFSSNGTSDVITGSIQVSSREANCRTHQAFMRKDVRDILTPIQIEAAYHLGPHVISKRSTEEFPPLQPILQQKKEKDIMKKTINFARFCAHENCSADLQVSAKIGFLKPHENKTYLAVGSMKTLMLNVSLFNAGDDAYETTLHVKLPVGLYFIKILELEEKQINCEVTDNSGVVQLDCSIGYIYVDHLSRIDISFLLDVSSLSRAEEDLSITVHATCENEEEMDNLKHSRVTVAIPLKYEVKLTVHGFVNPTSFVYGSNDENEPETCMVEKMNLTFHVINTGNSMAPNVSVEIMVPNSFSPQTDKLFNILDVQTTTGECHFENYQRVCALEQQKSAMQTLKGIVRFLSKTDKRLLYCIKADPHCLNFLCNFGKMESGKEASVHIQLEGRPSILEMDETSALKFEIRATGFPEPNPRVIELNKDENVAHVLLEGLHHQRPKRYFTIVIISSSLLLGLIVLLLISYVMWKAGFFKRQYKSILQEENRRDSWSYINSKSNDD
T1 sequence (P05556 21-798): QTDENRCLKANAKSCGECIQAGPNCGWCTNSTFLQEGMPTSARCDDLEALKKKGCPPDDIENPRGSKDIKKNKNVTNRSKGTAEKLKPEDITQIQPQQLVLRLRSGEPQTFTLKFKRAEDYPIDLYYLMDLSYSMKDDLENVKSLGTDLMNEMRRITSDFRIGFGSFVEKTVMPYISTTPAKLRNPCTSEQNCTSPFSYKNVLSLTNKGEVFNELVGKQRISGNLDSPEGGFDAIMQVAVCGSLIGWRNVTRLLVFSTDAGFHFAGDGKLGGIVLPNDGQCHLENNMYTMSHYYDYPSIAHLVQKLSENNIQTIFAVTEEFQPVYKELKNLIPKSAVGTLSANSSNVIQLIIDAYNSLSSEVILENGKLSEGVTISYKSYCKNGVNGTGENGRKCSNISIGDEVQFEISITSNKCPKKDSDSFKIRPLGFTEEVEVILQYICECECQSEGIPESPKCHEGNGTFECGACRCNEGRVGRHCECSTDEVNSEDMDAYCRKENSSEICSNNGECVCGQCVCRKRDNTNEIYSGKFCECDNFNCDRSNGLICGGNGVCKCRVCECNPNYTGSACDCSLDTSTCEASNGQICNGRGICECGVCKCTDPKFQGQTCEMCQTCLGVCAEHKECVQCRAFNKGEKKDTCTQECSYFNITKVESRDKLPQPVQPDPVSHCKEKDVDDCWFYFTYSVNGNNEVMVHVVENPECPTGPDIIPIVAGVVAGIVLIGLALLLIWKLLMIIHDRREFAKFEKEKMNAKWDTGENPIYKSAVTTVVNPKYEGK

| SMILES | IC50 [nM] |
| --- | --- |
| CN1CCN(C(=O)Oc2ccc(C[C@H](Nc3c(N(C)CCc4ccccc4)c(=O)c3=O)C(=O)O)cc2)CC1 [Example 66, (2S)-3-[4-(4-methylpiperazinyl)carbamoyloxy-phenyl]-2-[2-(methyl-phenethyl-amino)-3,4-dioxo-cyclobut-1-enylamino]-propionic acid] | 0.5 |
| CN1CCN(C(=O)Oc2ccc(C[C@H](Nc3c(N(C)CCc4ccncc4)c(=O)c3=O)C(=O)O)cc2)CC1 [Example 68, (2S)-3-[4-(4-methylpiperazinyl)carbamoyloxy-phenyl)-2-{2-[methyl-(2-pyridin-4-yl-ethyl)-amino]-3,4-dioxo-cyclobut-1-enylamino}-propionic acid] | 1.3 |

Same assay, conditions: Jurkat cells, rsVCAM-1; IC50 reflects 50% receptor occupancy; unit nM; read-out: IC50 (FACS)

| SMILES | IC50 [nM] |
| --- | --- |
| CCCCCCN(CCCCCC)c1c(N[C@@H](Cc2ccc(OC(=O)N3CCN(C)CC3)cc2)C(=O)O)c(=O)c1=O [Example 70] | 0.2 |
| CCCCCCN(CCCCCC)c1c(N[C@@H](Cc2ccc(OC(=O)N(C)C)cc2)C(=O)O)c(=O)c1=O [Example 59, (2S)-2-(2-Dihexylamino-3,4-dioxo-cyclobut-1-enylamino)-3-(4-dimethylcarbamoyloxy-phenyl)-propionic acid] | 0.6 |
| CCCCCCN(CCCCCC)c1c(N[C@@H](Cc2cn(Cc3ccccc3)cn2)C(=O)O)c(=O)c1=O [Example 29, (S)-3-(1-Benzyl-1H-imidazol-4-yl)-2-(2-dihexylamino-3,4-dioxo-cyclobut-1-enylamino)-propionic acid] | 631 |
| CN(Cc1cccnc1)c1c(N[C@@H](Cc2ccc(NC(=O)c3ccncc3)cc2)C(=O)O)c(=O)c1=O [Example 41, N-[2-(Methyl-pyridin-3-ylmethyl-amino)-3,4-dioxo-cyclobut-1-enyl]-4-[(pyridine-4-carbonyl)-amino]-L-phenylalanine] | 26 |
| CCCCCCN(CCCCCC)c1c(N[C@@H](Cc2ccc(NC(=O)c3ccccc3)cc2)C(=O)O)c(=O)c1=O [Example 26, (S)-3-(4-Benzoylamino-phenyl)-2-(2-dihexylamino-3,4-dioxo-cyclobut-1-enylamino)-propionic acid] | 150 |
| CCCCCCN(CCCCCC)c1c(N[C@@H](Cc2ccc(NC(=O)c3ccncc3)cc2)C(=O)O)c(=O)c1=O [Example 39, N-[2-(Dihexylamino)-3,4-dioxo-1-cyclobuten-1-yl]-4-[(4-pyridinylcarbonyl)amino]-L-phenylalanine] | 1.3 |
| CCCCCCN(CCCCCC)c1c(N[C@@H](Cc2ccc(OCCCN(C)C)cc2)C(=O)O)c(=O)c1=O [Example 32, N-(2-Dihexylamino-3,4-dioxo-cyclobut-1-enylamino)-O-(3-dimethylamino-propyl)-L-tyrosine] | 12 |
| CN(Cc1cccnc1)c1c(N[C@@H](Cc2ccc(NC(=O)c3cccnc3)cc2)C(=O)O)c(=O)c1=O [Example 48, N-[2-(Methyl-pyridin-3-ylmethyl-amino)-3,4-dioxo-cyclobut-1-enyl]-4-[(pyridine-3-carbonyl)-amino]-L-phenylalanine] | 160 |
| CN(CCc1ccncc1)c1c(N[C@@H](Cc2ccc(NC(=O)c3cccnc3)cc2)C(=O)O)c(=O)c1=O [Example 46] | 40 |
| CN(CCc1ccncc1)c1c(N[C@@H](Cc2ccc(NC(=O)c3ccncc3)cc2)C(=O)O)c(=O)c1=O [Example 35, N-[2-[Methyl[2-(4-pyridinyl)ethyl]amino]-3,4-dioxo-1-cyclobuten-1yl]-4-[(4-pyridinylcarbonyl)amino]-L-phenylalanine] | 15 |
| CN(C)C(=O)Oc1ccc(C[C@H](Nc2c(N(C)CCc3ccccc3)c(=O)c2=O)C(=O)O)cc1 [Example 57] | 0.9 |
| CN(C)C(=O)Oc1ccc(C[C@H](Nc2c(N(C)CCc3ccncc3)c(=O)c2=O)C(=O)O)cc1 [Example 63, (2S)-3-(4-Dimethylcarbamoyloxy-phenyl)-2-{2-[methyl-(2-pyridin-4-yl-ethyl)-amino]-3,4-dioxo-cyclobut-1-enylamino}-propionic acid] | 1.6 |
| CN(CCc1ccccc1)c1c(N[C@@H](Cc2ccc(NC(=O)c3ccncc3)cc2)C(=O)O)c(=O)c1=O [Example 37, N-[2-[Methyl(2-phenylethyl)amino]-3,4-dioxo-1-cyclobuten-1-yl]-4-[(4-pyridinylcarbonyl)amino]-L-phenylalanine] | 2.2 |
| CN(C)C(=O)Oc1ccc(C[C@H](Nc2c(N(C)Cc3cccnc3)c(=O)c2=O)C(=O)O)cc1 [Example 61, (2S)-3-(4-Dimethylcarbamoyloxy-phenyl)-2-[2-(methyl-pyridin-3-ylmethyl-amino)-3,4-dioxo-cyclobut-1-enylamino]-propionic acid] | 8.3 |
| CCCCCCN(CCCCCC)c1c(N[C@@H](Cc2ccc(NC(=O)C3CCN(C(=O)OCc4ccccc4)CC3)cc2)C(=O)O)c(=O)c1=O [Example 53] | 71 |
| CCCCCCN(CCCCCC)c1c(N[C@@H](Cc2ccc(NC(=O)c3cccnc3)cc2)C(=O)O)c(=O)c1=O [Example 44, N-[2-(Dihexylamino)-3,4-dioxo-1-cyclobuten-1-yl]-4-[(3-pyridinylcarbonyl)amino]-L-phenylalanine] | 6.5 |

Same assay, conditions: Jurkat cells, rsVCAM-1; IC50 reflects 50% receptor occupancy; unit μM; read-out: IC50 (FACS)

| SMILES | IC50 [nM] |
| --- | --- |
| CN(CCc1ccncc1)c1c(N[C@@H](Cc2ccccc2)C(=O)O)c(=O)c1=O [Example 50, N-{2-[Methyl-(2-pyridin-4-yl-ethyl)-amino]-3,4-dioxo-cyclobut-1-enyl}-L-phenylalanine] | 9000 |
| CC(=O)N1CCN(c2c(N[C@@H](Cc3ccccc3)C(=O)O)c(=O)c2=O)CC1 [Example 23, (S)-2-[2-(4-Acetyl-piperazin-1-yl)-3,4-dioxo-cyclobut-1-enylamino]-3-phenyl-propionic acid] | 40000 |
| CCCCCCN(Cc1ccc(N(C)C)cc1)c1c(N[C@@H](Cc2ccccc2)C(=O)O)c(=O)c1=O [Example 19, (S)-2-{2-[(4-Dimethylamino-benzyl)-hexyl-amino]-3,4-dioxo-cyclobut-1-enylamino}-3-phenyl-propionic acid] | 13000 |
| CCCCCCN(Cc1ccccc1)c1c(N[C@@H](Cc2ccccc2)C(=O)O)c(=O)c1=O [Example 11, [2-(Benzyl-hexyl-amino)-3,4-dioxo-cyclobut-1-enyl]-L-phenylalanine] | 4400 |
| O=C(O)[C@H](Cc1ccccc1)Nc1c(NCc2cccnc2)c(=O)c1=O [Example 9, {3,4-Dioxo-2-[(pyridin-3-ylmethyl)-amino]-cyclobut-1-enyl}-L-phenylalanine] | 116000 |
| CCCCCCN(CCCCCC)c1c(N[C@@H](Cc2ccccc2)C(=O)O)c(=O)c1=O [Example 15, (S)-2-(2-Dihexylamino-3,4-dioxo-cyclobut-1-enylamino)-3-phenyl-propionic acid] | 1500 |
| CCCCCCN(Cc1ccc2ccccc2c1)c1c(N[C@@H](Cc2ccccc2)C(=O)O)c(=O)c1=O [Example 17, (S)-2-[2-(Hexyl-naphthalen-2-ylmethyl-amino)-3,4-dioxo-cyclobut-1-enylamino]-3-phenyl-propionic acid] | 36000 |
| O=C(O)[C@H](Cc1ccccc1)Nc1c(NC(c2ccccc2)c2ccccc2)c(=O)c1=O [Example 5, [2-(benzhydrylamino)-3,4-dioxo-cyclobut-1-enyl]-L-phenylalanine] | 101000 |
| O=C(O)[C@H](Cc1ccccc1)Nc1c(NCc2ccccc2)c(=O)c1=O [Example 3, [2-(Benzylamino)-3,4-dioxo-cyclobut-1-enyl]-L-phenylalanine] | 58000 |
| O=C(O)[C@H](Cc1ccccc1)Nc1c(N(Cc2ccccc2)Cc2ccccc2)c(=O)c1=O [Example 13, (2-Dibenzylamino-3,4-dioxo-cyclobut-1-enylamino)-L-phenylalanine] | 4400 |
| O=C(O)[C@H](Cc1ccccc1)Nc1c(NCCc2c[nH]c3ccccc23)c(=O)c1=O [Example 7, 2-{2-[2-(1H-Indol-3-yl)-ethylamino]-3,4-dioxo-cyclobut-1-enylamino}-L-phenylalanine] | 52000 |
| O=C(O)[C@H](Cc1ccccc1)Nc1c(N2CCN(c3ccccc3)CC2)c(=O)c1=O [Example 21, N-[3,4-Dioxo-2-(4-phenyl-piperazin-1-yl)-cyclobut-1-en-1-yl]-L-phenylalanine] | 86000 |
